Experimental data taken from patent US4943574A, “(1H-azol-1-ylmethyl) substituted benzotriazole derivatives and pharmaceutical compositions containing them” (Janssen Pharmaceutica N.V., priority 1989, dated 1990).

Columns and labels:
[1] = test system: aromatase; details: reported in Biochemical Pharmacology, 34, 1087 (1985); cited from earlier work
[2] = test system: aromatase; experiment: In vivo-inhibition of the aromatase activity (plasma estradiol in PMSG-injected immature female Wistar rats); design: species or system rat (immature female Wistar rats); details: 1 mg/kg oral gavage, two hours following administration, PMSG-injected immature female Wistar rats
Protocol: Immature female Wistar rats weighing 120 g were injected subcutaneously with 200 I.U. of pregnant mare's serum gonadotropin (PMSG). […] Control animals received 20% polyethyleneglycol only. Two hours following drug or placebo administration the rats were killed by decapitation and trunk blood was collected on heparine. Plasma estradiol concentrations were measured by standard radio-immunological procedures.

[3] = target: T1, aromatase (Homo sapiens, UniProt P11511); experiment: biochemical; details: human placental microsomes, 30 min at 37° C., pH 7.4, 1,2[3H]androstenedione; read-out: IC50-values (concentration of the compound required to obtain 50% inhibition of the estrogen synthesis)
T1 sequence (P11511 1-503): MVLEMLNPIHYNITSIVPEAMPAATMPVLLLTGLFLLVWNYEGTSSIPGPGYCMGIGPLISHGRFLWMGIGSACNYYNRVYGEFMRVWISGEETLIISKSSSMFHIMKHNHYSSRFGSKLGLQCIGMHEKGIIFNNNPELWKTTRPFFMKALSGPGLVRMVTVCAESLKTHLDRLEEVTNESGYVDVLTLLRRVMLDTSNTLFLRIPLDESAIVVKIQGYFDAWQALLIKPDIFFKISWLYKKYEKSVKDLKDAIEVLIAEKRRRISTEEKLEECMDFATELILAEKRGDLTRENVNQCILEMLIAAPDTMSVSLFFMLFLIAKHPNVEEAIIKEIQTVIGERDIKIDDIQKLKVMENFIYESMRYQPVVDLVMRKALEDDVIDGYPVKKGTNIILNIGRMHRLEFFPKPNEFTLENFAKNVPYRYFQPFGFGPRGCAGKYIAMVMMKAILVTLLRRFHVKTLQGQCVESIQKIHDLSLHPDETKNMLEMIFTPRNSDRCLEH
Protocol: Human placental microsomes were diluted in potassium phosphate buffer (0.1M, pH 7.4) to give about 50% conversion of androgens to estrogens (protein content: about 0.5 mg). Four ml human placental microsomes were incubated in a final volume of 5 ml with 0.2 μCi1,2[3H]-androstenedione, 2 μg androstendione and 5 μl of test compound and/or dimethyl sulfoxide (DMSO). […] The reaction was initiated by the addition of androstenedione and proceeded for 30 min at 37° C. During the incubation period, the mixtures were gassed with air. In this assay, aromatization of androstenedione results in the production of [3H]-H2 O which is isolated by extracting the samples with chloroform to remove the free steroid.

| IC50 [3] [nM] | SMILES | inhibition of the action of the enzyme aromatase (in words) [1] | % recovery estradiol (plasma estradiol relative to the controls) [2] [%] |
| --- | --- | --- | --- |
|  | Clc1ccccc1C(c1ccccc1)(c1ccccc1)n1ccnc1 [clotrimazole] | inhibit the action of the enzyme aromatase |  |
|  | CC(=O)N1CCN(c2ccc(OCC3COC(Cn4ccnc4)(c4ccc(Cl)cc4Cl)O3)cc2)CC1 (stereo not shown) [ketoconazole] | inhibit the action of the enzyme aromatase |  |
|  | Clc1ccc(COC(Cn2ccnc2)c2ccc(Cl)cc2Cl)c(Cl)c1 (stereo not shown) [miconazole] | inhibit the action of the enzyme aromatase |  |
| 18.2 | CCCCn1nnc2ccc(C(c3ccc(F)cc3)n3ccnc3)cc21 (stereo not shown) [Compound 17] |  | 7 |
| 10.5 | CC(C)CCn1nnc2ccc(Cn3ccnc3)cc21 [Compound 93] |  | 8 |
| 12 | CC(C)On1nnc2ccc(Cn3ccnc3)cc21 [Compound 195, 6-(1H-imidazol-1-ylmethyl)-1-(1-methylethoxy)-1H-benzotriazole] |  | 19 |
| 24.2 | CCCCn1nnc2ccc(C(c3ccccc3)n3ccnc3)cc21.O=C(O)C(=O)O (stereo not shown) [Compound 75, 1-butyl-6-[(1H-imidazol-1-yl)phenylmethyl]-1H-benzotriazole ethanedioate(1:1)] |  | 27 |
| 22.2 | Cn1nnc2ccc(C(c3ccc(Br)cc3)n3ccnc3)cc21 (stereo not shown) [Compound 51] |  | 7 |
| 6.7 | CCCCCOn1nnc2ccc(Cn3ccnc3)cc21 [Compound 201] |  | 19 |
| 9.2 | BrCCOn1nnc2ccc(Cn3ccnc3)cc21 [Compound 204] |  | 19 |
| 18.3 | Cn1nnc2ccc(C(c3cccc(Br)c3)n3ccnc3)cc21 (stereo not shown) [Compound 50] |  | 1 |
| 20.6 | c1ccc(C(c2ccc3nnn(C4CCCCC4)c3c2)n2ccnc2)cc1 (stereo not shown) [Compound 104] |  | 9 |
| 22.2 | Cn1nnc2ccc(C(c3ccc(Cl)cc3)n3ccnc3)cc21 (stereo not shown) [Compound 30] |  | 7 |
| 21.5 | Cn1nnc2ccc(C(c3ccccc3Cl)n3ccnc3)cc21 (stereo not shown) [Compound 56] |  | 8 |
